Data from patent publication US8629318B2, “Transgenic animals for analyzing CYP3A4 cytochrome P450 gene regulation” (University of Sydney, priority 2000, dated 2014).
Entries after “also recorded” stand apart in the source; their conditions may differ.

Assays:
−13CYP3A4/lacZ transgene [1] = assay: β-galactosidase activity in total liver lysates, ONPG assay, line 9/4; format: in vivo, mouse; settings: 100 mg/kg i.p. daily for 4 days, FIG. 3A
Description: (§1) Administration of xenobiotics to mice. 8-10 week old male and female mice hemizygous for the −CYP3A4/lacZ and −13CYP3A4/lacZ transgenes were used to test the ability of a range of xenobiotics and hormones to activate expression of transgene-derived β-galactosidase. […] The dose used for all reagents to test for induction of the transgene was 100 mg/kg body weight. Dose response studies were carried out in the range of 1-100 mg/kg with male hemizygous transgenic mice.
(§2) Analysis of transgene and mouse Cyp3a gene expression. β-galactosidase activity was visualised in slices and frozen sections of liver and other tissues by staining with X-gal (5-bromo-4-chloro-3-indolyl-β-D-galactopyranoside). Tissues were fixed in 0.25% glutaraldehyde, 0.1 M phosphate buffer pH7.3, 5 mM EGTA, 2 mM MgCl2: washed in 0.1 M phosphate buffer pH7.3, 0.01% sodium deoxycholate, 0.025% NP40, 2 mM MgCl2 and stained by incubation at 37° C. in wash solution supplemented with 1 mg/ml X-gal, 5 mM potassium ferricyanide, and 5 mM potassium ferrocyanide. The level of β-galactosidase activity was determined in whole liver homogenates [100 mg fresh tissue/ml 0.25M Tris-HCl (pH 7.3)] using the O-nitrophenyl-β-D-galactopyranoside (ONPG) assay according to standard techniques. After appropriate dilution the homogenate was incubated with β-galactosidase assay reagent (0.1 M sodium phosphate buffer (pH7.3)/1 mM MgCl2/50 mmol β-mercaptoethanol/0.88 mg/ml ONPG) at 37° C., quenched by the addition of 1 M Na2CO3 and the absorbance at 420 nm determined. The units of β-galactosidase activity are given as A420/mg liver/minute.

−13CYP3A4/lacZ transgene [2] = assay: Xenobiotic induction of transgene expression in line 15/10; format: in vivo, mouse; settings: data not shown
Description: as §1
Analysis of transgene and mouse Cyp3a gene expression. β-galactosidase activity was visualised in slices and frozen sections of liver and other tissues by staining with X-gal (5-bromo-4-chloro-3-indolyl-β-D-galactopyranoside). […] The level of β-galactosidase activity was determined in whole liver homogenates [100 mg fresh tissue/ml 0.25M Tris-HCl (pH 7.3)] using the O-nitrophenyl-β-D-galactopyranoside (ONPG) assay according to standard techniques. After appropriate dilution the homogenate was incubated with β-galactosidase assay reagent (0.1 M sodium phosphate buffer (pH7.3)/1 mM MgCl2/50 mmol β-mercaptoethanol/0.88 mg/ml ONPG) at 37° C., quenched by the addition of 1 M Na2CO3 and the absorbance at 420 nm determined. […]

−13CYP3A4/lacZ transgene [3] = system: −13CYP3A4/lacZ transgene
Description: as §1, §2

mouse Cyp3all gene = settings: in vivo, ip, 100 mg/kg
Description: as §1
Filters were stripped and reprobed with an 18S rRNA oligonucleotide to normalise loading.

Clc1ccccc1C(c1ccccc1)(c1ccccc1)n1ccnc1 [clotrimazole]
relative degree of induction of transgene, β-galactosidase activity in liver lysates (−13CYP3A4/lacZ transgene [1]): intermediate inducers

C[C@@H]1C[C@H]2[C@@H]3CCC4=CC(=O)C=C[C@]4(C)[C@@]3(F)[C@@H](O)C[C@]2(C)[C@@]1(O)C(=O)COP(=O)(O)O [dexamethasone, dexamethasone phosphate]
induction profile of transgene expression (−13CYP3A4/lacZ transgene [2]): most potent activator
thickness of zone of X-gal positive hepatocytes (−13CYP3A4/lacZ transgene [3]; line 9/4, 100 mg/kg, FIG. 4B): up to 10 cells
thickness of zone of hepatocytes expressing the transgene around the central vein (X-gal) (−13CYP3A4/lacZ transgene [3]; line 9/4, low doses, FIG. 4B): 1-2 cells

O=C1NC(=O)C(c2ccccc2)(c2ccccc2)N1 [phenyloin]
relative degree of induction of transgene, β-galactosidase activity in liver lysates (−13CYP3A4/lacZ transgene [1]): intermediate inducers

CC(=O)[C@H]1[C@H](C#N)C[C@H]2[C@@H]3CC=C4C[C@@H](O)CC[C@]4(C)[C@H]3CC[C@@]21C [pregnenolone 16α-carbonitrile]
hepatic Cyp3all mRNA, females versus males (mouse Cyp3all gene): higher levels of Cyp3all mRNA were observed in females than males
relative degree of induction of transgene, β-galactosidase activity in liver lysates (−13CYP3A4/lacZ transgene [1]; 100 mg/kg): most potent xenobiotic activators; also recorded: most potent inducers
hepatic transgene expression, X-gal staining of liver slices (cells containing β-galactosidase) (−13CYP3A4/lacZ transgene [3]; female mice line 9/4, 100 mg/kg i.p. daily for 4 days, compared with corn oil treated mice): increased zone of blue staining cells

CC(=O)[C@H]1CC[C@H]2[C@@H]3CC=C4C[C@@H](O)CC[C@]4(C)[C@H]3CC[C@]12C [pregnenolone]
relative degree of induction of transgene, β-galactosidase activity in liver lysates (−13CYP3A4/lacZ transgene [1]; 100 mg/kg): very weak inducers; also recorded: the induction was weak compared with xenobiotics
